Literature values, collected in patent US20070041998A1, “Use of alum and a th1 immune response inducing adjuvant for enhancing immune responses” (Intercell AG, priority 2003, published 2007).
Where no end group is shown, it is not given here.

Tests used:
Staphylococcus aureus = settings: Staphylococcus aureus-infected mice
human neutrophils = settings: via cell surface calreticulin

With “KLKLLLLLKLK-NH2 [synthetic antimicrobial peptide (Nakajima 1997; Cho 1999)]” as the substance, how does the chemotherapeutic activity (Staphylococcus aureus) read?
Its chemotherapeutic activity is “significant chemotherapeutic activity”.

What about the “production of superoxide anion (O2−)” value (human neutrophils) of the same substance?
Its value is “activated to produce the superoxide anion”.
